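Compound exposure: 48 hours, 5 concentrations, 96-well plates. At the GI50, growth is halved.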 Active and inactive are the calls of the source. Rule as the data show it: active = GI50 up to about 1.1 µM and inactive = higher. Where a SMILES comes first, the peptide text is derived from it. The star is where a group is joined. Boc = CC(C)(C)OC(=O)*
Key:
Test in all cases: inhibition of tumour cell growth, NCI panel, 48 h
OVCAR-5 = system: OVCAR-5
OVCAR-3 = system: OVCAR-3
IGROV-1 = system: IGROV-1
UO-31 = system: UO-31
MOLT-4 = system: MOLT-4
A549 = system: A549
MDA-MB-435 = system: MDA-MB-435
HCT-15 = system: HCT-15
HL-60 = system: HL-60
SK-MEL-2 = system: SK-MEL-2
SK-MEL-5 = system: SK-MEL-5
MDA-MB-231 = system: MDA-MB-231
HCT-116 = system: HCT-116
Hs-578T = system: Hs-578T
NCI/ADR-RES = system: NCI/ADR-RES
NCI-H460 = system: NCI-H460
M14 = system: M14
SR = system: SR

| Compound | GI50 (OVCAR-5) | GI50 (OVCAR-3) | GI50 (IGROV-1) | GI50 (UO-31) | GI50 (MOLT-4) | GI50 (A549) | GI50 (MDA-MB-435) | GI50 (HCT-15) [µM] | GI50 (HL-60) | GI50 (SK-MEL-2) | GI50 (SK-MEL-5) | GI50 (MDA-MB-231) | GI50 (HCT-116) | GI50 (Hs-578T) | GI50 (NCI/ADR-RES) | GI50 (NCI-H460) | GI50 (M14) | GI50 (SR) |
| --- | --- | --- | --- | --- | --- | --- | --- | --- | --- | --- | --- | --- | --- | --- | --- | --- | --- | --- |
| O=C(O)Cc1nc[nH]c1C(=O)O | > 100 µM (inactive) | > 100 µM (inactive) | > 100 µM (inactive) | > 100 µM (inactive) | > 100 µM (inactive) | > 100 µM (inactive) | > 100 µM (inactive) | > 100 | > 100 µM (inactive) | > 100 µM (inactive) | > 100 µM (inactive) | > 100 µM (inactive) | > 100 µM (inactive) | > 100 µM (inactive) | > 100 µM (inactive) | > 100 µM (inactive) | > 100 µM (inactive) |  |
| CCCCCCCCCCCCn1c(=O)cc(NCCCC)c2cc3c(NCCCC)cc(=O)n(CCCCCCCCCCCC)c3nc21 |  | > 100 µM (inactive) |  | > 100 µM (inactive) | > 100 µM (inactive) | > 100 µM (inactive) | > 100 µM (inactive) | > 100 |  | > 100 µM (inactive) | > 100 µM (inactive) | > 100 µM (inactive) | > 100 µM (inactive) |  | > 100 µM (inactive) | > 100 µM (inactive) | > 100 µM (inactive) |  |
| Cc1c2c(n3c(nc4ccccc43)c1C#N)N(c1ccc(F)cc1)CC2 | > 100 µM (inactive) | > 100 µM (inactive) | > 100 µM (inactive) | > 100 µM (inactive) |  | > 100 µM (inactive) | > 100 µM (inactive) | > 100 | > 100 µM (inactive) | > 100 µM (inactive) | > 100 µM (inactive) |  | > 100 µM (inactive) | 71.1 µM (inactive) | > 100 µM (inactive) | > 100 µM (inactive) |  | > 100 µM (inactive) |
| COc1ccc(-c2nc(-c3cnccn3)n(C3OC(CO)C(O)C3O)n2)cc1 (centres undefined) | > 10 µM (inactive) | > 10 µM (inactive) |  | > 10 µM (inactive) | > 10 µM (inactive) | > 10 µM (inactive) | > 10 µM (inactive) | > 10 | > 10 µM (inactive) | > 10 µM (inactive) |  |  |  |  | > 10 µM (inactive) | > 10 µM (inactive) | > 10 µM (inactive) | > 10 µM (inactive) |
| Cn1c(=O)c2[nH]c(N=O)nc2n(C)c1=O | > 100 µM (inactive) | > 100 µM (inactive) | > 100 µM (inactive) | > 100 µM (inactive) | > 100 µM (inactive) | > 100 µM (inactive) | > 100 µM (inactive) | > 100 | > 100 µM (inactive) | > 100 µM (inactive) |  | > 100 µM (inactive) | > 100 µM (inactive) | > 100 µM (inactive) | > 100 µM (inactive) | > 100 µM (inactive) | > 100 µM (inactive) |  |
| CC(C)(C)OC(=O)NC(Cc1ccc(OCc2ccccc2)cn1)C(N)=O (centres undefined) | > 100 µM (inactive) | 94.8 µM (inactive) | > 100 µM (inactive) | 82.6 µM (inactive) | > 10 µM (inactive) | > 100 µM (inactive) | > 100 µM (inactive) | 54.7 | > 100 µM (inactive) |  | 26 µM (inactive) | > 100 µM (inactive) | > 100 µM (inactive) | > 100 µM (inactive) | 89.9 µM (inactive) | > 100 µM (inactive) |  | > 100 µM (inactive) |
| CCCCCCC(C)CC(CCCCCC)NCCOC(=O)c1ccc([N+](=O)[O-])cc1 (centres undefined) | 31.2 µM (inactive) |  | 14.1 µM (inactive) | 11.6 µM (inactive) |  | 15.6 µM (inactive) |  | 14.3 |  | 15.8 µM (inactive) | 14.3 µM (inactive) | 10.4 µM (inactive) | 11.7 µM (inactive) | 18.7 µM (inactive) | 21.3 µM (inactive) |  |  |  |
| COC(=O)c1cc(S(=O)(=O)NC2=NNC(C)CN2)c(S)cc1Cl (centres undefined) | 65.3 µM (inactive) | 38.3 µM (inactive) | 29.6 µM (inactive) | 99.3 µM (inactive) | 77.3 µM (inactive) | 30.1 µM (inactive) | 40.3 µM (inactive) | 37.8 | > 100 µM (inactive) | 26 µM (inactive) | 26.4 µM (inactive) | > 100 µM (inactive) | 30.6 µM (inactive) |  | 39.8 µM (inactive) | 44.8 µM (inactive) | 31.5 µM (inactive) | 37.5 µM (inactive) |
| C=C(Cl)CN1c2ccccc2C=Cc2ccccc21 | 19.9 µM (inactive) | 15.7 µM (inactive) | 16.1 µM (inactive) | 31.6 µM (inactive) |  | 15.6 µM (inactive) | 14.9 µM (inactive) | > 100 |  | 18.7 µM (inactive) | 7.23 µM (inactive) | 14.7 µM (inactive) | 5.01 µM (inactive) | 53.3 µM (inactive) | > 100 µM (inactive) | 3.61 µM (inactive) | 17 µM (inactive) |  |
| CC(=O)OC1COC(n2nc(N)nc2C)C(OC(C)=O)C1OC(C)=O (centres undefined) | > 100 µM (inactive) | > 100 µM (inactive) | > 100 µM (inactive) | > 100 µM (inactive) | > 100 µM (inactive) | > 100 µM (inactive) | > 100 µM (inactive) | > 100 | > 100 µM (inactive) | > 100 µM (inactive) | > 100 µM (inactive) | > 100 µM (inactive) | > 100 µM (inactive) |  | > 100 µM (inactive) | > 100 µM (inactive) | > 100 µM (inactive) |  |
| CC1(C)C=C(/C=N/Nc2ccccc2)C(C#N)=C(O)C1(C#N)C#N | > 100 µM (inactive) | > 100 µM (inactive) | > 100 µM (inactive) | > 100 µM (inactive) | 57.7 µM (inactive) | > 100 µM (inactive) | > 100 µM (inactive) |  | 41.9 µM (inactive) |  | > 100 µM (inactive) | > 100 µM (inactive) | > 100 µM (inactive) | > 100 µM (inactive) | > 100 µM (inactive) | 92.7 µM (inactive) | > 100 µM (inactive) | 31.3 µM (inactive) |
| C(CCCCc1nnc(N2CCOCC2)o1)CCCc1nnc(N2CCOCC2)o1 | > 100 µM (inactive) | > 100 µM (inactive) | > 100 µM (inactive) | > 100 µM (inactive) | > 100 µM (inactive) | > 100 µM (inactive) | > 100 µM (inactive) | > 100 | > 100 µM (inactive) | > 100 µM (inactive) | > 100 µM (inactive) | > 100 µM (inactive) | > 100 µM (inactive) |  | > 100 µM (inactive) | > 100 µM (inactive) | > 100 µM (inactive) |  |
| COc1ccc2c(c1)/C(=C(\C(Cl)=C(Cl)Cl)[N+](=O)[O-])N2 | > 100 µM (inactive) | 28.2 µM (inactive) | > 100 µM (inactive) | > 100 µM (inactive) | 24.2 µM (inactive) | > 100 µM (inactive) | 51.2 µM (inactive) | > 100 | > 100 µM (inactive) |  | 41 µM (inactive) | > 100 µM (inactive) | > 100 µM (inactive) | 80.2 µM (inactive) | 79.8 µM (inactive) | > 100 µM (inactive) | > 100 µM (inactive) | 11 µM (inactive) |
| CC[C@H](C)[C@H]1NC(=O)[C@@H](NC(=O)[C@@H](CC(C)C)N(C)C(=O)C2CCCN2C(=O)[C@H](C)O)[C@@H](C)OC(=O)[C@H](Cc2ccccc2)N(C)C(=O)[C@@H]2CCCN2C(=O)[C@H](CC(C)C)NC(=O)[C@@H](C)C(=O)[C@H](C(C)C)OC(=O)C[C@@H]1O (some centres undefined) | < 0.00625 µM (active) | < 0.00625 µM (active) | < 0.00625 µM (active) | < 0.00625 µM (active) | < 0.00625 µM (active) | < 0.00625 µM (active) | < 0.00625 µM (active) | 0.00757 | 0.122 µM (active) | < 0.00625 µM (active) | < 0.00625 µM (active) | < 0.00625 µM (active) | < 0.00625 µM (active) | < 0.00625 µM (active) | 0.0589 µM (active) | < 0.00625 µM (active) | < 0.00625 µM (active) |  |
| c1csc(-c2ccsc2-c2cccs2)c1 | > 100 µM (inactive) | > 100 µM (inactive) | > 100 µM (inactive) | 39.5 µM (inactive) | 11.9 µM (inactive) | 19.2 µM (inactive) | 24.4 µM (inactive) | 31 | 30.5 µM (inactive) |  | 98.9 µM (inactive) |  | 92.9 µM (inactive) | 52.8 µM (inactive) | 43.3 µM (inactive) | 80.9 µM (inactive) | 59.2 µM (inactive) | 1.18 µM (inactive) |
| COC(=O)C(Cc1c[nH]c2ccccc12)NC(=O)C(Cc1c[nH]c2ccccc12)NC(=O)C(Cc1c[nH]c2ccccc12)NC(=O)C(Cc1c[nH]c2ccccc12)NC(=O)C(Cc1c[nH]c2ccccc12)NC(=O)C(Cc1c[nH]c2ccccc12)NC(=O)C(Cc1c[nH]c2ccccc12)NC(=O)OC(C)(C)C (centres undefined) (Boc-WWWWWWW-OMe; configuration not given here) | 42.4 µM (inactive) | > 100 µM (inactive) | > 100 µM (inactive) | 44.9 µM (inactive) | 40.6 µM (inactive) | 31.9 µM (inactive) | > 100 µM (inactive) | > 100 | 41.7 µM (inactive) | 17.1 µM (inactive) | 20.9 µM (inactive) | > 100 µM (inactive) | 33.3 µM (inactive) |  |  | > 100 µM (inactive) | 21.7 µM (inactive) | 48 µM (inactive) |
| C[C@@H](Oc1ccc(Oc2cnc3ccc(Cl)cc3n2)cc1)C(=O)O [R(+)XK469] | > 100 µM (inactive) | 95.7 µM (inactive) | 83 µM (inactive) | > 100 µM (inactive) | > 100 µM (inactive) | 55.5 µM (inactive) | > 100 µM (inactive) | > 100 | 37.1 µM (inactive) | > 100 µM (inactive) | 67.5 µM (inactive) |  | 94.2 µM (inactive) | 60.1 µM (inactive) | > 100 µM (inactive) | 11.2 µM (inactive) | > 100 µM (inactive) | > 100 µM (inactive) |
